# Non-standard residues stand in square brackets, D forms with d. Residues, ends and D or L forms follow the SMILES beside them. pGlu = O=C1CC[C@@H](C(=O)O)N1
# Assays:
# apTKRPR-B [1] = target: T1, apTKRPR-B (Aplysia californica, UniProt A0AAU7STS1); assay: Cell surface expression by ELISA after ligand exposure, FLAG-apTKRPR-B; type: cell-based; conditions: 10 µM, different durations, compared with 0 min, n = 4
# T1 sequence (A0AAU7STS1 1-447): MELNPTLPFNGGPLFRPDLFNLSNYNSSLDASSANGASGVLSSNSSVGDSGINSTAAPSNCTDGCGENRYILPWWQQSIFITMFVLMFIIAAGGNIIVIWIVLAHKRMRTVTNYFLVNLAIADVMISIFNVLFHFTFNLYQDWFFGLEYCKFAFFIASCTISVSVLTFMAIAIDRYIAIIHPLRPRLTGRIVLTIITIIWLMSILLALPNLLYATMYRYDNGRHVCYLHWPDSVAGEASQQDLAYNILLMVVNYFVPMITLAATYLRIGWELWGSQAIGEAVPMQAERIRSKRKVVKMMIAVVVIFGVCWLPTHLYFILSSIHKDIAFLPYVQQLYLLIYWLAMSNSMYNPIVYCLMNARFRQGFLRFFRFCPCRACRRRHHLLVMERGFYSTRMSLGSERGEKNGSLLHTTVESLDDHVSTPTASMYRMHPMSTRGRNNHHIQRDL
# Description: Cell surface expression determination of apTKRPRs and mutant receptors, all with FLAG tags, was performed using a procedure modified from previous work ([64], [122], [123], [124]). Specifically, CHO-K1 cells were cultured in F-12K medium (Gibco, 21127-022) with 10% FBS (Genial, G11-70500) at 37 °C in a humidified incubator containing 5% CO2. When the cells were grown to 70 to 90% confluence, transfection experiments were performed (see “Cell culture and transfection” section). After 24 h, transfected cells were plated in 96-well white clear-bottom cell culture plates (Corning, 3610) at a density of 20,000 cells in 100 μl per well and incubated overnight. The following day, culture media was aspirated and cells were washed twice with 200 μl of 1× PBS (Procell, PB180327). Then, 100 μl of 1× PBS containing 5% (w/v) BSA was added to each well and incubated at room temperature. After 30 min, 100 μl of 1:10,000 anti-FLAG M2-horseradish peroxidase conjugate (Sigma-Aldrich, Cat A8592) was added to each well and incubated for 30 min at 37 °C. Cells were washed twice with 200 μl of 1× PBS and then incubated with 200 μl of TMB Chromogen Solution (Sangon Biotech, E661007) for 30 min at 37 °C in the dark. Finally, 50 μl of ELISA Stopping Solution (Sangon Biotech, E661006) was added to each well to stop the reaction. The absorbance at 450 nm was measured using a Tecan Spark microplate reader. […]
# [2] = tested on: putative neuropeptide FF receptor (apNPFFR); assay: IP1 accumulation assay, CHO-K1 cells transiently expressing putative neuropeptide FF receptor; type: cell-based, Aplysia californica; conditions: 10^-5 M compared with 10^-10 M (control); n = 3; no Gαq cotransfection
# Description: To express putative Aplysia receptors transiently in CHO-K1 cells, the cDNAs were subcloned into the pcDNA3.1(+) or pcDNA3.1(+)-FLAG (for ELISA experiments only, see “Cell surface expression analysis by ELISA” section) expression vector. On the day before transfection, the CHO-K1 cells were passaged into 60 mm diameter tissue culture–treated dishes, and the transfection experiments were performed when the cells were grown to 70 to 90% confluence. CHO-K1 cells were transfected with the cDNA plasmid constructs using Turbofect Transfection reagent (Thermo Fisher Scientific, R0531), following the manufacturer’s instructions. In brief, 4 μg of the putative receptor plasmids [in pcDNA3.1(+) or pcDNA3.1(+)-FLAG] were mixed with 400 μl of Opti-MEM (Gibco, 11058021), followed by the addition of 15 μl of TurboFect Transfection reagent and incubated at room temperature for 15 min. The DNA/TurboFect mixture dropwise was then added to the dish, and the cells were incubated at 37 °C in a humidified incubator containing 5% CO2 overnight.
# The next day, transfected cells were trypsinized and reseeded in an opaque white 96-well half-area (Corning, 3688) or 384-well tissue culture–treated plates (Corning, 3570) at a density of 20,000 cells/well in F-12K and 10% FBS and incubated at 37 °C in a humidified incubator containing 5% CO2 overnight. On the third day, the activation of the putative receptors was detected by monitoring intracellular IP1 concentration using an IP-One Gq kit (Cisbio, 62IPAPEB) in Tecan Spark. Except for using 0.5x reagent, all other procedures were performed following the manufacturer’s instructions. IP1 accumulation assay measures the accumulation of IP1, which is hydrolyzed from the second messenger, and inositol triphosphate. Inositol triphosphate is generated by the Gαq pathway when a GPCR is activated by an appropriate ligand.
# apTKRPR-B [3] = target: T1, apTKRPR-B; assay: Receptor desensitization assay, protocol 1 (prolonged agonist exposure), apTKRPR-B; type: cell-based; conditions: 10 μM, 2, 5, 10, 15, 30 and 60 min at 37 °C; fold increase over basal; n = 3
# Description: Therefore, we adopted two protocols to study the desensitization of apTKRPRs. The protocols were performed using a procedure modified from previous work ([87], [88], [89]).
# Protocol 1 ([87], [88]): Under continuous (prolonged) stimulation with an agonist, we examined agonist-induced desensitization by quantifying the rate of IP1 accumulation. Specifically, CHO-K1 cells transiently expressing pcDNA3.1-apTKRPRs were incubated in the absence or presence of 10 μM (saturating concentration) apTKRP-2b for the different duration (2, 5, 10, 15, 30, and 60 min) at 37 °C, and intracellular concentrations of IP1 accumulation were measured. Data are presented as fold increase over basal IP1 concentration (Fig. S10).
smiles,measurement,setting,value
CC(C)C[C@H](NC(=O)[C@H](Cc1c[nH]cn1)NC(=O)[C@@H]1CCCN1C(=O)[C@@H]1CCC(=O)N1)C(=O)NCC(=O)N[C@@H](Cc1ccccc1)C(=O)N[C@@H](Cc1c[nH]cn1)C(=O)NCC(=O)N[C@@H](CO)C(=O)N[C@@H](CCCNC(=N)N)C(N)=O [apTKRP-2b] ([pGlu]PHLGFHGSR-NH2),cell surface receptor expression of apTKRPR-B after agonist exposure,apTKRPR-B [1],significant loss of receptor expression
same,IP1 response of putative apNPFFR in screening,[2],did not respond
same,"time course of IP1 accumulation, apTKRPR-B (protocol 1)",apTKRPR-B [3],initially increased and then reached a plateau

# Source: PMC11365428 (The Journal of Biological Chemistry, 2024)
